Reference: patent publication US20230227769A1, “Means and Methods to Improve Yeast Fermentation Efficiency” (VIB VZW, priority 2020, published 2023)

These compounds were tested on 2G industrial yeast strains MD4 and T18 (assay: Fermentations in lignocellulose hydrolysates spiked with a range of inhibitor concentrations). Conditions: five lignocellulose hydrolysates spiked with a range of inhibitor concentrations; both strains MD4 and T18.
Assay type: cell-based, S. cerevisiae
Method: The medium was spiked with different industrially relevant concentrations of (FIG. 1A, FIG. 1E) HMF, (FIG. 1B, FIG. 1F) furfural, (FIG. 1C, FIG. 1G) formic acid and (FIG. 1D, FIG. 1H) acetic acid.
As a first step in developing a yeast strain that can cope with the presence of fermentation inhibitors, the level of all relevant inhibitory compounds was measured in five different lignocellulose hydrolysates: two bagasse hydrolysates, two corn cob hydrolysates and one spruce hydrolysate (for composition see Table 2). Fermentations with two 2G industrial yeast strains, MD4 and T18, were performed using these hydrolysates spiked with a range of inhibitor concentrations.
After preculture of the yeast strains for 48 h at 30° C. with shaking at 200 rpm in YPD2% (10 g/l yeast extract, 20 g/l bacteriological peptone, 2% D-glucose) up to stationary phase, small-scale (10 ml) semi-anaerobic fermentations with MD4 and T18 were performed at pH 5.2, 35° C., shaking at 350 rpm, and a yeast inoculum OD 5.0. Weight loss of the fermentation tubes, which is correlated with CO2 production during conversion of glucose and xylose into ethanol, was measured continuously, or sampling at different timepoints was performed to analyse sugar and inhibitor concentrations by HPLC.

Compound	inhibitory effect on fermentation
O=Cc1ccc(O)cc1 [4-hydroxybenzaldehyde]	smaller inhibitory effect
O=C(O)c1ccc(O)cc1 [4-hydroxybenzoic acid]	smaller inhibitory effect
O=Cc1ccc(CO)o1 [HMF, 5-(hydroxymethyl)furfural]	major inhibitors
CC(=O)CCC(=O)O [Levulinic acid]	smaller inhibitory effect
CC(=O)O [acetic acid]	major inhibitors
O=CO [formic acid]	major inhibitors
O=Cc1ccco1 [furfural]	major inhibitors
COc1cc(C=O)ccc1O [vanillin]	smaller inhibitory effect
